Measured values published in PubChem BioAssay AID248 (DTP/NCI, 2004).
Inconclusive results and toxic doses are left out. Rule as the data show it: active = T/C of 150% or more; inactive = T/C below 125%.

System: L1210 leukemia ip in BDF1 mice, survival T/C
Assay: NCI In Vivo Anticancer Drug Screen. Data for tumor model L1210 Leukemia (intraperitoneal) in B6D2F1 (BDF1) mice
Conditions: endpoint: mean survival time, higher = longer survival
Summary of the method: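 Read-out is survival time, reported as the treated-group measurement over the vehicle-control measurement.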

[1] = dose: 100.0 mg/kg/injection, schedule: Q04DX003 (ip), vehicle: saline with Tween-80
[2] = dose: 200.0 mg/kg/injection, schedule: Q04DX003 (ip), vehicle: saline with Tween-80
[3] = dose: 400.0 mg/kg/injection, schedule: Q04DX003 (ip), vehicle: saline with Tween-80
[4] = dose: 100.0 mg/kg/injection, schedule: Q04DX003 (ip), vehicle: Klucel (hydroxypropylcellulose) (HPC)
[5] = dose: 200.0 mg/kg/injection, schedule: Q04DX003 (ip), vehicle: Klucel (hydroxypropylcellulose) (HPC)
[6] = dose: 400.0 mg/kg/injection, schedule: Q04DX003 (ip), vehicle: Klucel (hydroxypropylcellulose) (HPC)

Measured: T/C

CCc1ccc(C(=O)CCCCl)cc1
inactive: [1] 94 % of control | [2] 100 % of control | [3] 86 % of control

Brc1ccc(C=C2c3ccccc3-c3ccccc32)cc1
inactive: dose: 100.0 mg/kg/injection, schedule: Q01DX009 (ip), vehicle: Klucel (hydroxypropylcellulose) (HPC) 100 % of control | [4] 96 % of control | dose: 200.0 mg/kg/injection, schedule: Q01DX009 (ip), vehicle: Klucel (hydroxypropylcellulose) (HPC) 97 % of control | [5] 97 % of control | dose: 400.0 mg/kg/injection, schedule: Q01DX009 (ip), vehicle: Klucel (hydroxypropylcellulose) (HPC) 100 % of control | [6] 94 % of control

O=S(=O)(c1ccccc1)c1ccccc1
inactive: [4] 104 % of control | [1] 95 % of control | [5] 111 % of control | [2] 103 % of control | [6] 87 % of control | [3] 89 % of control
